≈ marks a conversion by molar mass, not a printed value.
Tested on: Staphylococcus aureus (ATCC29213)
Test: Microtitre plate assay, IC90 for bacterial growth, Staphylococcus aureus strain
Format: cell-based
Conditions: 90% inhibitory concentration for bacterial growth, 24 hours at 37° C.; for IC90: read-out: IC90 (μg/ml) STA B29213
Procedure: D.2. In-Vitro Method for Testing Compounds for Anti-Bacterial Activity Against a Non-Mycobacterial Strain
Preparation of Bacterial Suspensions for Susceptibility Testing:
The bacteria used in this study were grown overnight in flasks containing 100 ml Mueller-Hinton Broth (Becton Dickinson—cat. no. 275730) in sterile de-ionized water, with shaking, at 37° C. Stocks (0.5 ml/tube) were stored at −70° C. until use. Bacteria titrations were performed in microtiter plates to detect the TCID50, in which TCID50 represents the dilution that gives rise to bacterial growth in 50% of inoculated cultures. In general, an inoculum level of approximately 100 TCID50 was used for susceptibility testing.
Anti Bacterial Susceptibility Testing: IC90 Determination
Flat-bottom, sterile 96-well plastic microtiter plates were filled with 180 μl of sterile deionized water, supplemented with 0.25% BSA. Subsequently, stock solutions (7.8× final test concentration) of compounds were added in 45 μl volumes in column 2 Serial five-fold dilutions (45 μl in 180 μl) were made directly in the microtiter plates from column 2 to reach column 11. Untreated control samples with (column 1) and without (column 12) inoculum were included in each microtiter plate. Depending on the bacteria type, approximately 10 to 60 CFU per well of bacteria inoculum (100 TCID50), in a volume of 100 μl in 2.8× Mueller-Hinton broth medium, was added to the rows A to H, except column 12. The same volume of broth medium without inoculum was added to column 12 in row A to H. The cultures were incubated at 37° C. for 24 hours under a normal atmosphere (incubator with open air valve and continuous ventilation). At the end of incubation, one day after inoculation, the bacterial growth was quantitated fluorometrically. Therefore resazurin (0.6 mg/ml) was added in a volume of 20 μl to all wells 3 hours after inoculation, and the plates were re-incubated overnight. A change in colour from blue to pink indicated the growth of bacteria. The fluorescence was read in a computer-controlled fluorometer (Cytofluor Biosearch) at an excitation wavelength of 530 nm and an emission wavelength of 590 nm. The % growth inhibition achieved by the compounds was calculated according to standard methods. The IC90 (expressed in μg/ml) was defined as the 90% inhibitory concentration for bacterial growth. The results are shown in Table 7 for an assay using a Staphylococcus aureus strain.

SMILES | IC90 (μg/ml) STA B29213 | IC90
COc1nc2ccc(-c3ccncc3)cc2cc1C(c1ccccc1)C1(O)CCN(Cc2ccccc2)CC1 (racemic) [Compound 31] | >32.54 µg/mL | –
CSc1nc2ccccc2cc1C(c1ccccc1)C1(O)CCN(Cc2ccccc2)CC1 (racemic) [Compound 32] | >28.69 µg/mL | –
COc1nc2ccc(Cl)cc2cc1C(c1ccccc1)C1(O)CCN(Cc2ccccc2)CC1 (racemic) [Compound 33] | 14.96 µg/mL (≈ 31.6 µM) | –
COc1ccc2nc(OC)c(C(c3ccccc3)C3(O)CCN(Cc4ccccc4)CC3)cc2c1 (racemic) [Compound 34] | >29.57 µg/mL | –
COc1nc2ccc(-c3ccco3)cc2cc1C(c1ccccc1)C1(O)CCN(Cc2ccccc2)CC1 (racemic) [Compound 37] | >31.84 µg/mL | –
CSc1nc2ccc(C)cc2cc1C(c1ccccc1)C1(O)CCN(Cc2ccccc2)CC1 (racemic) [Compound 41] | >29.57 µg/mL | –
COc1nc2cc(Br)ccc2cc1C(c1ccccc1)C1(O)CCN(Cc2ccccc2)CC1 (racemic) [Compound 43] | 20.60 µg/mL (≈ 39.8 µM) | –
COc1nc2cccc(Br)c2cc1C(c1ccccc1)C1(O)CCN(Cc2ccccc2)CC1 (racemic) [Compound 44] | >32.65 µg/mL | –
COc1nc2ccc(-c3cccnc3)cc2cc1C(c1ccc(Cl)cc1)C1(O)CCN(Cc2ccccc2)CC1.O=C(O)/C=C/C(=O)O (racemic) [Compound 50] | >43.79 µg/mL | –
COc1nc2ccc(-c3ccccc3)cc2cc1C(c1ccc(Cl)cc1)C1(O)CCN(Cc2ccccc2)CC1.O=C(O)/C=C/C(=O)O (racemic) [Compound 51] | >42.92 µg/mL | –
COc1nc2ccccc2cc1C(c1ccc(Cl)cc1)C1(O)CCN(Cc2ccccc2)CC1.O=C(O)/C=C/C(=O)O (racemic) [Compound 52] | 19.77 µg/mL | –
COc1nc2ccc(-c3ccco3)cc2cc1C(c1ccc(Cl)cc1)C1(O)CCN(Cc2ccccc2)CC1.O=C(O)/C=C/C(=O)O (racemic) [Compound 64] | >43.02 µg/mL | –
COc1nc2ccc(Br)cc2cc1C(c1ccc(Cl)c(C(F)(F)F)c1)C1(O)CCN(Cc2ccccc2)CC1.O=C(O)/C=C/C(=O)O (racemic) [Compound 66] | >49.51 µg/mL | –
COc1nc2ccc(Br)cc2cc1C(c1ccccc1Cl)C1(O)CCN(Cc2ccccc2)CC1.O=C(O)/C=C/C(=O)O (racemic) [Compound 67] | >43.98 µg/mL | –
COc1nc2ccc(-c3ccccc3)cc2cc1C(c1ccc(Cl)cc1)C1(O)CCN(Cc2ccc(C)cc2)CC1.O=C(O)/C=C/C(=O)O (racemic) [Compound 69] | >44.98 µg/mL | –
COc1nc2ccc(-c3ccco3)cc2cc1C(c1ccc(Cl)cc1)C1(O)CCN(Cc2ccc(C)cc2)CC1.O=C(O)/C=C/C(=O)O (racemic) [Compound 70] | >44.71 µg/mL | –
COc1nc2ccc(-c3cccnc3)cc2cc1C(c1ccc(Cl)cc1)C1(O)CCN(Cc2ccc(C)cc2)CC1.O=C(O)/C=C/C(=O)O (racemic) [Compound 71] | >44.46 µg/mL | –
COc1nc2ccc(Br)cc2cc1C(c1ccc(F)cc1)C1(O)CCN(Cc2ccccc2)CC1.O=C(O)/C=C/C(=O)O (racemic) [Compound 72] | 33.82 µg/mL | –
COc1nc2ccc(Br)cc2cc1C(c1ccccc1F)C1(O)CCN(Cc2ccccc2)CC1 (racemic) [Compound 83] | >33.79 µg/mL | –
COc1nc2ccc(Br)cc2cc1C(c1cccc(F)c1)C1(O)CCN(Cc2ccccc2)CC1 (racemic) [Compound 84] | >33.79 µg/mL | –
COc1nc2ccc(-c3ccccc3)cc2cc1C(c1ccc(Cl)cc1)C1(O)CCN(CCc2ccccc2)CC1.O=C(O)/C=C/C(=O)O (racemic) [Compound 89] | >44.39 µg/mL | –
COc1nc2ccc(-c3ccccc3)cc2cc1C(c1ccccc1)C1(O)CCN(Cc2ccccc2)CC1 (stereo not drawn) [Compound 4] | – | > 32.5 µg/mL
COc1nc2ccc(Br)cc2cc1C(c1ccccc1)C1(O)CCN(CCc2ccccc2)CC1 (stereo not drawn) [Compound 5] | – | 8.42 µg/mL (≈ 15.8 µM)
COc1nc2ccc(Br)cc2cc1[C@@H](c1ccc(Cl)cc1)C1(O)CCN(Cc2ccccc2)CC1 [Compound 7] | – | > 34.8 µg/mL
COc1nc2ccc(Br)cc2cc1[C@H](c1ccc(Cl)cc1)C1(O)CCN(Cc2ccccc2)CC1 [Compound 8] | – | > 34.8 µg/mL
COc1nc2ccc(Br)cc2cc1C(c1ccc(Cl)cc1)C1(O)CCNCC1 (stereo not drawn) [Compound 14] | – | 11.6 µg/mL (≈ 25.1 µM)

SMILES | IC90 (μg/ml) STA B29213 | IC90
COc1nc2ccc(Br)cc2cc1C(c1ccc(Cl)cc1)C1(O)CCN(C2CCN(Cc3ccccc3)CC2)CC1 (stereo not drawn) [Compound 15] | – | 11.3 µg/mL (≈ 17.7 µM)
COc1nc2ccc(Br)cc2cc1C(c1ccccc1)C1(O)CCN(Cc2ccccc2)CC1 (stereo not drawn) [Compound 29] | 32.65 µg/mL (≈ 63.1 µM) | –
COc1nc2ccc(Br)cc2cc1C(c1ccccc1)C1(O)CCN(C(C)C)CC1 (stereo not drawn) [Compound 30] | >29.62 µg/mL | –
COc1nc2ccc(Br)cc2cc1C(c1ccc(Cl)cc1)C1(O)CCN(Cc2ccccc2)CC1.O=C(O)/C=C/C(=O)O (stereo not drawn) [Compound 35] | >43.03 µg/mL | –
COc1nc2ccc(Br)cc2cc1C(c1ccc(Cl)cc1)C1(O)CCN(Cc2ccccc2)CC1.O=C(O)C(=O)O (stereo not drawn) [Compound 36] | 32.85 µg/mL | –
COc1nc2ccc(Br)cc2cc1C(c1ccccc1)C1(O)CCN(Cc2cccc(C)c2)CC1 (stereo not drawn) [Compound 38] | >33.54 µg/mL | –
COc1nc2ccc(Br)cc2cc1C(c1ccc(C)cc1)C1(O)CCN(Cc2ccccc2)CC1 (stereo not drawn) [Compound 39] | 33.54 µg/mL (≈ 63.1 µM) | –
COc1ccc(C(c2cc3cc(Br)ccc3nc2OC)C2(O)CCN(Cc3ccccc3)CC2)cc1 (stereo not drawn) [Compound 40] | 13.75 µg/mL (≈ 25.1 µM) | –
COc1nc2ccc(Br)cc2cc1C(c1ccc(Cl)cc1)C1(O)CCNCC1.O=C(O)/C=C/C(=O)O (stereo not drawn) [Compound 45] | 19.23 µg/mL | –
COc1nc2ccc(Br)cc2cc1C(c1ccc(Cl)cc1)C1(O)CCN(CCc2ccccc2)CC1 (stereo not drawn) [Compound 46] | >35.71 µg/mL | –
COc1nc2ccc(Br)cc2cc1C(c1ccc(Cl)c(C)c1)C1(O)CCN(Cc2ccccc2)CC1 (stereo not drawn) [Compound 48] | >35.71 µg/mL | –
COc1nc2ccc(Br)cc2cc1C(c1ccc(Cl)c(C)c1)C1(O)CCN(Cc2ccccc2)CC1.O=C(O)/C=C/C(=O)O (stereo not drawn) [Compound 49] | >44.06 µg/mL | –
COc1nc2ccc(Br)cc2cc1C(c1ccc(Cl)c(F)c1)C1(O)CCN(Cc2ccccc2)CC1.O=C(O)/C=C/C(=O)O (stereo not drawn) [Compound 53] | >44.89 µg/mL | –
COc1nc2ccc(Br)cc2cc1C(c1cc2ccccc2o1)C1(O)CCN(Cc2ccccc2)CC1.O=C(O)/C=C/C(=O)O (stereo not drawn) [Compound 54] | >43.45 µg/mL | –
COc1nc2ccc(Br)cc2cc1C(c1ccc(F)c(C)c1)C1(O)CCN(Cc2ccccc2)CC1.O=C(O)/C=C/C(=O)O (stereo not drawn) [Compound 55] | >43.09 µg/mL | –
COc1nc2ccc(Br)cc2cc1C(c1ccc2ccccc2c1)C1(O)CCN(Cc2ccccc2)CC1.O=C(O)/C=C/C(=O)O (stereo not drawn) [Compound 56] | >44.60 µg/mL | –
COc1nc2ccc(Br)cc2cc1C(c1cccnc1)C1(O)CCN(Cc2ccccc2)CC1.O=C(O)/C=C/C(=O)O (stereo not drawn) [Compound 57] | 20.32 µg/mL | –
COc1nc2ccc(Br)cc2cc1C(c1cccc(Cl)c1)C1(O)CCN(Cc2ccccc2)CC1 (stereo not drawn) [Compound 59] | 17.45 µg/mL (≈ 31.6 µM) | –
COc1nc2ccc(Br)cc2cc1C(c1cccc(Cl)c1)C1(O)CCN(Cc2ccccc2)CC1.O=C(O)/C=C/C(=O)O (stereo not drawn) [Compound 60] | >43.03 µg/mL | –
COc1nc2ccc(Br)cc2cc1C(c1ccc(Cl)cc1)C1(O)CCN(Cc2ccccc2C)CC1.O=C(O)/C=C/C(=O)O (stereo not drawn) [Compound 63] | >44.79 µg/mL | –
COc1nc2ccc(Br)cc2cc1C(c1ccc(Cl)c(Cl)c1)C1(O)CCN(Cc2ccccc2)CC1.O=C(O)/C=C/C(=O)O (stereo not drawn) [Compound 65] | >46.15 µg/mL | –
COc1nc2ccc(Br)cc2cc1C(c1ccco1)C1(O)CCN(Cc2ccccc2)CC1.O=C(O)/C=C/C(=O)O (stereo not drawn) [Compound 68] | >40.66 µg/mL | –
C=Cc1ccc2nc(OC)c(C(c3ccc(Cl)cc3)C3(O)CCN(Cc4ccc(C)cc4)CC3)cc2c1.O=C(O)/C=C/C(=O)O (stereo not drawn) [Compound 73] | >41.02 µg/mL | –
O=c1[nH]c2ccc(Br)cc2cc1C(c1ccc(Cl)cc1)C1(O)CCN(CCc2ccccc2)CC1 (stereo not drawn) [Compound 74] | 6.95 µg/mL (≈ 12.6 µM) | –
CN(C)c1nc2ccc(Br)cc2cc1C(c1ccc(Cl)cc1)C1(O)CCN(Cc2ccccc2)CC1.O=C(O)/C=C/C(=O)O (stereo not drawn) [Compound 75] | 34.89 µg/mL | –

Source: patent US9133167B2, “Antibacterial quinoline derivatives” (JANSSEN PHARMACEUTICA NV, priority 2012, dated 2015)
